According to paper PMC8944748, “Kojic Acid Showed Consistent Inhibitory Activity on Tyrosinase from Mushroom and in Cultured B16F10 Cells Compared with Arbutins” (Antioxidants, 2022):
Entries after “also recorded” stand apart in the source; their conditions may differ.

Key:
[1] = tested on: monophenolase of mushroom tyrosinase (MTYR); assay: MTYR monophenolase activity assay (L-tyrosine as substrate, dopachrome at 475 nm); format: biochemical
Procedure: L-tyrosine and L-DOPA were used as the substrates to test the monophenolase activity and diphenolase activity, respectively. Freshly prepared tyrosinase and substrate solutions were used in this experiment. For air-saturated solutions, a temperature of 25 °C and pH of 6.8 was maintained throughout the study. All assays were performed in triplicate. In flat-bottom 96-well plates, the reaction media was 200 μL. […] Once the substrate was added in reaction system, the formation of dopachrome was immediately measured at 475 nm for 30 min at 1 min intervals. The concentrations of kojic acid were 7.5, 15, 30, 60, and 120 μM. The concentrations of α-arbutin were 480, 960, 2000, 4000, and 8000 μM. The concentrations of β-arbutin were 240, 480, 960, 2000, and 4000 μM. […] These concentrations were used to determine the progress curves and inhibition rates of monophenolase. […] In the formula, 'negative control' is the treatment without sample; 'blank control' is the treatment without sample and substrate; 'sample' is the treatment including all solutions; and 'sample control' is the treatment without substrate but including sample. If the inhibition rate was negative, it meant the tyrosinase was activated. The activation rate was the absolute value of inhibition rate.

[2] = tested on: diphenolase of mushroom tyrosinase (MTYR); assay: MTYR diphenolase activity assay (L-DOPA as substrate, dopachrome at 475 nm); format: biochemical; conditions: L-DOPA
Procedure: L-tyrosine and L-DOPA were used as the substrates to test the monophenolase activity and diphenolase activity, respectively. Freshly prepared tyrosinase and substrate solutions were used in this experiment. For air-saturated solutions, a temperature of 25 °C and pH of 6.8 was maintained throughout the study. All assays were performed in triplicate. […] Additionally, three concentrations of every compound were selected to present progress curves. Once the substrate was added in reaction system, the formation of dopachrome was immediately measured at 475 nm for 25 min at 1 min intervals.

[3] = biological target: monophenolase of mushroom tyrosinase (MTYR); assay: Kinetic analysis of MTYR monophenolase (Lineweaver-Burk plot); format: biochemical
Procedure: (§1) The concentration of enzyme was fixed, while the concentration of substrate was changed. […] When determining inhibition type of monophenolase, the concentration of kojic acid were 7.5, 30, and 120 µM. […] The concentrations of deoxyarbutin were 3.75, 15, and 60 µM. […] The concentrations of deoxyarbutin were 7.5, 30, and 120 µM. Once the substrate was added to the reaction system, the formation of dopachrome was immediately detected at 475 nm once every minute for 30 min. Steady state rate (V0) was defined as the slope of the linear range of progress curves, also called the dopachrome accumulation curve. The Km (substrate concentration that yield a half-maximal velocity) and Vmax (maximum velocity) of tyrosinase were determined by Michaelis–Menten equation. Lineweaver–Burk plot was used to display the data.

[4] = biological target: diphenolase of mushroom tyrosinase (MTYR); assay: Kinetic analysis of MTYR diphenolase (Lineweaver-Burk plot); format: biochemical
Procedure: as §1

[5] = tested on: T1, B16F10 cellular tyrosinase (BTYR); assay: B16F10 cellular tyrosinase (BTYR) activity, L-DOPA oxidase activity of lysate after treatment of cells; format: cell-based, mouse; conditions: 48 h, percentage of control 2
T1 construct: The supernatant was used as the BTYR solution; endogenous in cells; host or cells: B16F10 mouse melanoma cells, α-MSH stimulated
Procedure: (§2) Measurement of B16F10 cellular tyrosinase (BTYR) activity, melanin content, and cell viability were the same as our previous study. Blank group (control 1) was the treatment containing cells and medium. Control group (control 2) was the treatment containing cells, medium, and α-MSH. Compound groups were the treatments containing cells, medium, α-MSH, and related compounds. Experiments were performed at least in triplicate.
(§3) B16F10 mouse malignant melanoma cell line from Stem Cell Bank (Chinese Academy of Sciences, Shanghai, China) were cultured in DMEM supplemented with 10% fetal bovine serum (FBS; Gibco, Grand Island, NV, USA) and antibiotics (100 U/mL penicillin and 100μg/mL streptomycin) in a humidified atmosphere of 5% CO2 at 37 °C. B16F10 cells at the exponential phase were adjusted for cell density and used in the following assay.
The BTYR activity was measured as the L-DOPA oxidase activity. B16F10 cells were seeded and incubated for 24 h in 24-well cell culture plates. Then, they were treated with 50 µL of 1 µM α-MSH and different molarities of compounds for another 48 h. After being washed twice with cold D-PBS and lysed with a lysis buffer (P0013J) containing 1% Triton X-100 for 30 min at −20 °C, the lysates were centrifuged at 12,000 rpm for 10 min at 4 °C. The supernatant was used as the BTYR solution. The reaction mixture, containing 50 μL of cell lysate supernatant and 50 μL of 5 mM L-DOPA, was incubated at 37 °C for 1 h and the level of dopachrome formation was measured spectrophotometrically at 475 nm. Lysis buffer was used as the control. The BTYR activity was calculated as a percentage of the control.

B16F10 cells = assay: Cellular melanin content of B16F10 cells stimulated by α-MSH; format: cell-based, mouse; conditions: 48 h, percentage of control 2
Procedure: as §2, §3
Briefly, B16F10 cells were treated with compounds as in Section 2.4.2. After being washed with PBS and dissolved in 1 M NaOH containing 10% DMSO for 1 h at 80 °C, the cell lysates were centrifuged at 12,000 rpm for 10 min. 150 μL of supernatant was transferred to 96-well plates and the absorbance was measured at 405 nm. The melanin content is expressed as a percentage of the control.

[6] = Cell viability of B16F10 cells, CCK-8 assay; format: cell-based, mouse; conditions: mouse, B16F10 melanoma cells, percentage of the control
Procedure: Blank group (control 1) was the treatment containing cells and medium. […] Compound groups were the treatments containing cells, medium, α-MSH, and related compounds. Experiments were performed at least in triplicate. […] B16F10 cells at the exponential phase were adjusted for cell density and used in the following assay. […] Cells were seeded into 96-well plates at a density of 1 × 10^4 cells/well and incubated for 24 h. Then, the cells were treated with different concentrations of compounds for 48 h. After rinsing once with D-PBS, 100 uL DMEM containing 10% CCK-8 was added and incubated for another 1 h. The absorbance values of the solution at 450 nm were measured. The cell viability is expressed as a percentage of the control.

[7] = tested on: diphenolase activity of MTYR; set-up: method as in PMID 7765966; conditions: α-arbutin below 10 mM; cited from earlier work
[8] = tested on: tyrosinase diphenolase from B16 mouse melanoma cells; set-up: method as in PMID 7765966; conditions: cited from earlier work
MTYR monophenolase = biological target: MTYR monophenolase; set-up: method as in PMID 28493937; conditions: read-out: IC50 on the inhibitory activity of MTYR monophenolase; cited from earlier work
[9] = tested on: three-dimensional human skin model; set-up: method as in PMID 15056856; conditions: cited from earlier work
[10] = change with increasing compound molarity

OC[C@H]1O[C@H](Oc2ccc(O)cc2)[C@H](O)[C@@H](O)[C@@H]1O [α-arbutin]
lag time for monophenolase activity ([1]; L-tyrosine, progress curves): extended in a molarity-dependent manner | IC50 ([1]; substrate L-tyrosine 2 mM, MTYR 300 U/mL, 25 °C, pH 6.8): 6.5 ± 0.137 mM | effect on diphenolase activity of MTYR ([2]; 30-8000 µM): prompted tyrosinase activity in a dose-dependent manner | lag time on diphenolase activity ([2]; progress curves): no lag time | Kinetic analysis on monophenolase Inhibition type ([3]; Lineweaver-Burk plot): competitive inhibitor | Kinetic analysis on monophenolase Km [3, 10]: increased | Kinetic analysis on monophenolase Vmax [3, 10]: remained constant | Kinetic analysis on diphenolase Inhibition type ([4]; Lineweaver-Burk plot): uncompetitive activator | Kinetic analysis on diphenolase Km [4, 10]: increased | Kinetic analysis on diphenolase Vmax [4, 10]: increased | tyrosinase activity of B16F10 cells stimulated by α-MSH ([5]; 43.8 µM): 91 ± 4% | tyrosinase activity of B16F10 cells stimulated by α-MSH ([5]; 87.5 µM): 88 ± 4% | tyrosinase activity of B16F10 cells stimulated by α-MSH ([5]; 175 µM): 90 ± 5% | tyrosinase activity of B16F10 cells stimulated by α-MSH ([5]; 350 µM): 93 ± 5% | tyrosinase activity of B16F10 cells stimulated by α-MSH ([5]; 700 µM): 86 ± 5% | melanin content of B16F10 cells stimulated by α-MSH (B16F10 cells; 43.8 µM): 95 ± 11% | melanin content of B16F10 cells stimulated by α-MSH (B16F10 cells; 87.5 µM): 91 ± 5% | melanin content of B16F10 cells stimulated by α-MSH (B16F10 cells; 175 µM): 92 ± 3% | melanin content of B16F10 cells stimulated by α-MSH (B16F10 cells; 350 µM): 87 ± 5% | melanin content of B16F10 cells stimulated by α-MSH (B16F10 cells; 700 µM): 81 ± 3% | viability at 48 h, 43.8 µM ([6]; 43.8 µM): 108 ± 5% | viability at 48 h, 87.5 µM ([6]; 87.5 µM): 113 ± 7% | viability at 48 h, 175 µM ([6]; 175 µM): 118 ± 8% | viability at 48 h, 350 µM ([6]; 350 µM): 127 ± 10% | viability at 48 h, 700 µM ([6]; 700 µM): 145 ± 14% | effect on diphenolase activity of MTYR [7]: did not inhibit; also recorded: does not inhibit | potency relative to β-arbutin as inhibitor of tyrosinase from B16 mouse melanoma [8]: 10 times | IC50 (MTYR monophenolase): 8 mM | inhibition of melanin synthesis [9]: 60%
